Read-outs that look alike come from different tables or passages of the source.
Experiments:
[1] = target: human Oxytocin Receptor (hOTR) (Homo sapiens (Human), UniProt P30559); assay: Oxytocin receptor antagonist assay (oxytocin-evoked calcium, FLIPR, CHEM-1-hOTR cells); type: cell-based; settings: read-out: OT IC50
Method in brief: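 Antagonist mode in CHEM-1-hOTR cells loaded with Calcium-6 dye; compounds (10-point, 1:3 series) preincubated 15 min at 37 °C, then oxytocin added at daily-determined EC80 in HBSS/20 mM HEPES with 0.1% BSA. Fluorescence (ex 470-495, em 515-575 nm) followed 3 min on FLIPR^TETRA; concentration-dependent reduction of oxytocin response measured.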

[2] = target: human Arginine Vasopressin Receptor V2 (AVPR2) (Homo sapiens (Human), UniProt P30518); assay: Vasopressin V2 receptor antagonist assay (cAMP TR-FRET, 1321N1 cells); type: cell-based
[3] = tested on: MDR1 (P-glycoprotein); assay: MDR1-MDCK effective efflux assay (Transwell, 10 μM, 1 hour), MDR1-MDCK cells; type: in vitro ADME; settings: dog
Method in brief: (§1)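 Wild-type and MDR1-MDCK monolayers cultured 3 days were dosed with compound at 10 μM (0.1% DMSO) in HBSS/25 mM HEPES pH 7.4, in both A>B and B>A directions, for 1 h at 37 °C. Samples were quantified by LC-MS/MS to give Papp and efflux ratio. Effective efflux ratio = ER(MDR1-MDCK)/ER(wild-type); Lucifer Yellow checked monolayer integrity.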

[4] = tested on: wild-type (WT) MDCK cells; assay: MDR1-MDCK effective efflux assay (Transwell, 10 μM, 1 hour), wild-type MDCK cells; type: in vitro ADME; settings: MDCK
Method in brief: as §1

[5] = as above; type: in vitro ADME; settings: dog, MDCK
Method in brief: as §1

[6] = MDCK-MDR1, pH 7.4, Papp AB MDR1
[7] = MDCK-MDR1, pH 7.4, MDR1-MDCK cells, apical to basolateral (A>B), 10 μM, 1 hour, read-out: Papp AB MDR1
[8] = pH 7.4, wild-type MDCK cells, apical to basolateral (A>B), 10 μM, 1 hour, read-out: Papp AB WT

human Oxytocin Receptor (hOTR), sequence (P30559 whole entry): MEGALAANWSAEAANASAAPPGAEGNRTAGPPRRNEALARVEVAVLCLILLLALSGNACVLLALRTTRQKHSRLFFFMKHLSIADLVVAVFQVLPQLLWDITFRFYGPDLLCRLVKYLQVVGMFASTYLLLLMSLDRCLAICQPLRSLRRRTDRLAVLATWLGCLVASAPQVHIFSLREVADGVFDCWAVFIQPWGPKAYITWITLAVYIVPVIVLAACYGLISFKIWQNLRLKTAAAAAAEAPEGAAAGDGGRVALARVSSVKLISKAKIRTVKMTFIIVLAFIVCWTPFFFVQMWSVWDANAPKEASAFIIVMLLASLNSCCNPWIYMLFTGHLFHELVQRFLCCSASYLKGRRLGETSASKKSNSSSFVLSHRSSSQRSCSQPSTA
human Arginine Vasopressin Receptor V2 (AVPR2), sequence (P30518 whole entry): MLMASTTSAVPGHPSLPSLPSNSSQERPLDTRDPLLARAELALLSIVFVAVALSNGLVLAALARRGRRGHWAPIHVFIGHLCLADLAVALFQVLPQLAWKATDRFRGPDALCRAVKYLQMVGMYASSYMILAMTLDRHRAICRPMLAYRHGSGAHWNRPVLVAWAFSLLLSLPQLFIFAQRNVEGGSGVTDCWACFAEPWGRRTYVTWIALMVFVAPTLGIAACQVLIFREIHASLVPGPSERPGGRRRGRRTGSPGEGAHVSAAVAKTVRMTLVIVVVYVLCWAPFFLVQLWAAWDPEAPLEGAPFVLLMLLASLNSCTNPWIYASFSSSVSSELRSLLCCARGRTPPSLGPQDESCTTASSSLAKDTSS

SMILES | IC50 [1] [nM] | IC50 [2] [nM] | Papp A→B at 1 h, 10 μM [3, 6] [×10⁻⁶ cm/s] | WT ER [4] | Papp A→B at 1 h, 10 μM ([5]; pH 7.4, Papp AB WT) [×10⁻⁶ cm/s] | Papp A→B at 1 h, 10 μM [3, 7] [×10⁻⁶ cm/s] | Papp A→B at 1 h, 10 μM [5, 8] [×10⁻⁶ cm/s]
CCC(=O)N1Cc2cc(Cl)ccc2-n2c(nnc2C2CC3(C2)CN(c2ccccn2)C3)C1 [compound 67] | > 1000 | > 1000 | < 7 | +++ | > 20 |  | 
CC(C)C(=O)N1Cc2cc(Cl)ccc2-n2c(nnc2C2CC3(C2)CN(c2ccccn2)C3)C1 [compound 71] | > 1000 | > 1000 | < 7 | ++++ | > 20 |  | 
O=C(N1Cc2cc(Cl)ccc2-n2c(nnc2C2CC3(C2)CN(c2cnccn2)C3)C1)C1(F)CC1 [compound 81] | > 1000 | > 1000 | 7 to 10 | +++ | > 20 |  | 
O=C(C1CC1)N1CC2(CC(c3nnc4n3-c3ccc(Cl)cc3CN(C(=O)C3(F)CC3)C4)C2)C1 [compound 136] | > 1000 | > 1000 | < 7 | + | 10 to 20 |  | 
COC(=O)N1Cc2cc(Cl)ccc2-n2c(C3CC4(C3)CN(c3ccc(F)cn3)C4)nnc2C1C (stereo not shown) [compound 142, methyl 8-chloro-1-(2-(5-fluoropyridin-2-yl)-2-azaspiro[3.3]heptan-6-yl)-4-methyl-4H-benzo[f][1,2,4]triazolo[4,3-a][1,4]diazepine-5(6H)-carboxylate] | 500 to 1000 | > 1000 | > 20 | ++++ | > 20 |  | 
CC(C)OC(=O)N1Cc2cc(Cl)ccc2-n2c(nnc2C2CC3(C2)CN(C(=O)C2CC2)C3)C1 [compound 153] | > 1000 | > 1000 | < 7 | ++ | > 20 |  | 
COC(=O)N1Cc2cc(Cl)ccc2-n2c(C3CC4(C3)CN(c3cnccn3)C4)nnc2C1C (stereo not shown) [compound 165] | 500 to 1000 | > 1000 |  |  |  | 7 to 10 | > 20
COC(=O)N1Cc2cc(Cl)ccc2-n2c(C3CC4(C3)CN(c3ncccn3)C4)nnc2C1C (stereo not shown) [compound 166] | > 1000 | > 1000 | < 7 | +++ | > 20 |  | 
CC(C)OC(=O)N1Cc2cc(Cl)ccc2-n2c(C3CC4(C3)CN(c3ncccn3)C4)nnc2C1C (stereo not shown) [compound 167] | > 1000 | > 1000 | > 20 | +++ | > 20 |  | 
CCOC(=O)N1Cc2cc(Cl)ccc2-n2c(C3CC4(C3)CN(c3ncccn3)C4)nnc2C1C (stereo not shown) [compound 168] | > 1000 | > 1000 | 7 to 10 | +++ | > 20 |  | 
CCOC(=O)N1Cc2cc(Cl)ccc2-n2c(C3CC4(C3)CN(c3ccc(F)cn3)C4)nnc2C1C (stereo not shown) [compound 169] | 100 to 500 | > 1000 |  |  |  | > 20 | > 20
COC(=O)N1Cc2cc(Cl)ccc2-n2c(C3CC4(C3)CN(c3ncc(F)cn3)C4)nnc2C1C (stereo not shown) [compound 170] | > 1000 | > 1000 | 10 to 20 | ++++ | > 20 |  | 
CC1c2nnc(C3CC4(C3)CN(c3ncccn3)C4)n2-c2ccc(Cl)cc2CN1C(=O)OC1CC1 (stereo not shown) [compound 171] | > 1000 | > 1000 | 10 to 20 | ++++ | > 20 |  | 
CC1c2nnc(C3CC4(C3)CN(c3ncc(F)cn3)C4)n2-c2ccc(Cl)cc2CN1C(=O)OC1(C)CC1 (stereo not shown) [compound 173] | 100 to 500 | > 1000 |  |  |  | > 20 | > 20
CC1c2nnc(C3CC4(C3)CN(c3ccc(F)cn3)C4)n2-c2ccc(Cl)cc2CN1C(=O)C1(F)CC1 (stereo not shown) [compound 174] | 500 to 1000 | > 1000 |  |  |  | > 20 | > 20
COC(=O)N1Cc2cc(Cl)ccc2-n2c(C3CC4(C3)CN(c3cccc(C)n3)C4)nnc2C1C (stereo not shown) [compound 180] | 100 to 500 | 100 to 500 |  |  |  | > 20 | > 20
COC(=O)N1Cc2cc(Cl)ccc2-n2c(C3CC4(C3)CN(c3ncccc3F)C4)nnc2C1C (stereo not shown) [compound 182] | 500 to 1000 | 500 to 1000 |  |  |  | > 20 | > 20

Reference: US11186577B2, “Vasopressin receptor antagonists and products and methods related thereto” (BlackThorn Therapeutics, Inc., priority 2017, dated 2021)
